Experimental data published in US20250099420A1, “SMALL MOLECULE MODULATORS OF GPR139 COMPLEX” (University of Florida Research Foundation, Incorporated, priority 2022, published 2025).
Where two headings read alike, the source gives them in different places.

How the values were obtained:
[1] = system: parental HEK cells; experiment: HEK parental Agonist Counterscreen Assay (non-transfected cells); assay type: cell-based; conditions: for Averaged Max % Response (±St. Dev.): activity relative to known control
From the text: The high control for the agonist counterscreen was Forskolin not acetylcholine.

[2] = target: T1, GPR139 (Homo sapiens, UniProt Q6DWJ6); experiment: GPR139 Agonist titration / agonist counterscreen assay (calcium detection, HEK-GPR139 cells); assay type: cell-based; parameters: expressed in transfected cells; host or cells: HEK Aequorin cells, Maxcyte transient transfection; conditions: GPR139 Agonist Activity; for EC50: read-out: EC50; for Averaged Max % Response (±St. Dev.): activity relative to known control
T1 sequence (Q6DWJ6 1-353): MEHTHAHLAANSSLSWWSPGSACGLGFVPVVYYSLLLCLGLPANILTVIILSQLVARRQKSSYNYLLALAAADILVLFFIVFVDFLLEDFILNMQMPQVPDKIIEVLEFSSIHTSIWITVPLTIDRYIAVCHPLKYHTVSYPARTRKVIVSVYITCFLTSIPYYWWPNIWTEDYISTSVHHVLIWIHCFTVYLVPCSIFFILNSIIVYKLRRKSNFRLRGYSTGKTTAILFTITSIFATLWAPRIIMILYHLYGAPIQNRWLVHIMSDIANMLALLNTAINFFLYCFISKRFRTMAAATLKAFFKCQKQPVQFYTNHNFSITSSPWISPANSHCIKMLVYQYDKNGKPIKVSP
Description: GPR activity was assessed using a calcium detection assay. […] Negative control samples were treated with DMSO. […] Intracellular calcium was measured using Calcium 5.

[3] = Homo sapiens, HEK293, HEK Agonist Activity section of Table 4 (parental HEK counterscreen)
[4] = values printed in E-notation without unit
[5] = Homo sapiens, HEK293, HEK Agonist Activity, parental non-transfected HEK cells

Compound	Lipophilic Efficiency (logD) ([1]; HEK Agonist Activity section)	Lipophilic Efficiency (logP) ([1]; HEK Agonist Activity section)	Averaged Max % Response (±St. Dev.) ([1]; HEK Agonist Activity section) [%]	EC50 [1, 3] [nM]	Efficiency Ligand [2]	Hill Slope [2]	Lipophilic Efficiency (logD) [2]	Lipophilic Efficiency (logP) [2]	EC50 ([2]; HEK-GPR139 cells) [nM]	Averaged Max % Response (±St. Dev.) [2] [%]	Lipophilic Efficiency (logD) ([2]; based on logD)	Lipophilic Efficiency (logP) ([2]; based on logP)	Hill Slope ([2]; fitted dose-response curve)	Efficiency Ligand ([2]; ligand efficiency)	EC50 [2, 4] [nM]	Lipophilic Efficiency (logD) ([1]; HEK Agonist Activity)	Lipophilic Efficiency (logP) ([1]; HEK Agonist Activity)	Averaged Max % Response (±St. Dev.) ([1]; HEK Agonist Activity) [%]	EC50 [1, 5] [nM]	EC50 ([1]; HEK Agonist Activity section of Table 4 (parental HEK counterscreen)) [nM]
COc1cccc(COC(=O)NC(C)C2COc3ccccc3O2)c1 (centres unmarked) [SR-01000362527]	1.68	1.68	12.25 ± 2.76	> 14100	0.34	0.88	2.98	2.98	701	96.08 ± 11.27										
O=C(CN1C(=O)NC2(CCc3ccccc32)C1=O)Nc1cccc(Cl)c1 (centres unmarked) [SR-01000069699]	2.03	2.03	12.32 ± 5.16	> 15200						116.05 ± 3.28	4.18	4.18	0.54	0.38	108					
O=C(NCCn1ccc2ccccc21)c1cccc(Br)c1 [SR-01000124135]	0.91	0.91	7.54 ± 4.78	> 14100						71.94 ± 4.54	2.76	2.76	0.57	0.45	197					
Cc1cc(-c2nnc(NC(=O)CCc3ccccc3)o2)n(C)n1 [SR-01000920602]	3.19	3.19	−28.12 ± 1.91	> 14100	0.39	0.91	4.83	4.83	325	90.23 ± 7.66										
COc1cc(C(C)=O)ccc1OCC(=O)NC(C)CCc1ccccc1 (centres unmarked) [SR-01000048295]										102.89 ± 3.61	4.43	4.43	0.88	0.40	38.3	1.86	1.86	7.53 ± 4.49	> 14300	
O=C(COc1ccccc1Cl)NNC(=O)CSc1ccc2ccccc2c1 [SR-01000071098]										108.04 ± 6.43	4.08	4.08	0.77	0.39	27.4	1.38	1.37	24.54 ± 7.58	> 14100	
CN(CCC(=O)NCC1Cc2cccc(-c3ccccn3)c2O1)C1CCS(=O)(=O)C1 (centres unmarked) [SR-01000193031]	4.36	4.19	25.60 ± 3.67	> 14100	0.30	0.62	5.90	5.73	406	95.01 ± 4.20										
Cc1ccc(SCC(=O)NNC(=O)CCC(=O)c2cccs2)cc1 [SR-01000069391]	2.43	2.43	12.32 ± 6.09							99.00 ± 11.26	4.39	4.39	0.48	0.39	171					> 15500
